Laboratory results: patent US9018173B2, “Materials and methods for suppressing inflammatory and neuropathic pain” (Indiana University Research and Technology Corp., priority 2010, dated 2015)
Entries after “also recorded” stand apart in the source; their conditions may differ. Residues, ends and D or L forms follow the SMILES beside them.

What was measured:
spatial memory = test: Morris water maze test of spatial/reference memory; type: in vivo, mice; conditions: 10 mg/kg i.p., 1 h-7 d after administration
Procedure: The rotarod test for motor coordination was performed as described with slight modifications. Following i.p. injection of vehicle or peptides, mice were tested with three trials each of fast and slow acceleration. The Morris water maze test was used to test reference/spatial memory. Mice were trained prior to the i.p. injection of TAT-Scramble or TAT-CBD3 peptides for 4 consecutive days (4 trials/day). Performance was evaluated 3 days following injection. Morris water maze test of spatial/reference memory. The Morris water maze test was used to test spatial memory. The maze consisted of a plastic pool (100 cm in diameter and 60 cm in depth) filled with water to a depth of 26.5 cm, with a clear Plexiglas stand (10 cm in diameter and 26 cm in height [i.e., 0.5 cm below the water's surface]) used as the hidden goal platform. The mice were trained prior to the injection for 4 consecutive days (4 trials/day). For each daily block of four trials, the mice were placed in the pool facing the wall. Trials were initiated from each of the four possible start locations (north, east, south, west) in a randomized manner. A maximum of 60 sec was allowed for each mouse to find the hidden platform. […] Mice were excluded from the study if their average latency to locate the platform on day 4 of the trials was greater than 50 sec. […]

[1] = test system: formalin-induced nocifensive behavior; test: Formalin test; type: in vivo, rat; conditions: 30 μM intraplantar, 30 min before formalin
Procedure: Referring now to FIG. 16. TAT-CBD3 reduces acute, inflammatory and neuropathic pain. (FIG. 16A) Time course of number of flinches following subcutaneous (dorsal surface of paw) injection of formalin (2.5%; 50 μl saline) in animals pretreated with peptides (3-100 μM; 20 μl dorsal surface of paw) 30 min before formalin (n=4-10). (FIG. 16B) The effect of peptides on number of flinches on formalin-induced phase 1 (0-10 min) and phase 2 (15-60 min). *, p<0.05 versus formalin-injected animals. (FIG. 16C) Formalin induces paw edema. Paw thickness was measured 1 h after injection of saline, formalin, and formalin+peptides (100 μM). *, p<0.05 versus saline-injected animals. (FIG. 16D) Pretreatment with TAT-CBD3 attenuates capsaicin-evoked nocifensive behavior. Vehicle (0.3% DMSO) or peptides (concentrations as indicated) in saline (40 μL) was instilled corneally and nocifensive behavior noted. […]
Behavioral analyses. […] For the eye-wipe test, vehicle, TAT control or TAT CBD3 peptides (30 μM, 40 μl) were pipetted directly into the right eye and the resulting nocifensive behavior was measured. […] This nocifensive behavior was recorded for five minutes and followed by capsaicin (3 μM; 40 μl saline) application into the pretreated eye. […]

[2] = target: T1, CRMP-2-CaV2.2 interaction (Rattus norvegicus, UniProt Q02294); test: Immunoprecipitation of CRMP-2/CaV2.2 in the presence of peptides; type: binding; conditions: spinal cord lysates or rat brains; peptides 10 μM
T1 construct: that could be captured from rat brains; from tissue; host or cells: rat brain / spinal cord lysates (CaV2.2)
Procedure: Referring now to FIG. 18. […] Peptides (10 μM each) were added for 30 min prior to addition of the CRMP-2-His protein. Representative blot from 12 separate experiments is shown. (FIG. 18.B) In vitro binding of L1-GST and Ct-dis-GST fusion proteins to CRMP-2 in the presence of scramble or CBD3 peptides (10 μM). The purification of the L1 and Ct-dis regions of CaV2.2 has been described by us previously. CRMP-2 bound to L1 and Ct-dis was probed with a CRMP-2 antibody. Representative blot from 4 separate experiments are shown. Similar results were obtained in experiments with spinal cord lysates (FIGS. 18.B and 18D).
Immunoblotting. This was performed as described previously. Rat brain synaptosomes were pre-cleared by a 1-h incubation with 20 μl of a 50% slurry of protein A/G beads (Pierce). The cleared lysate was then incubated overnight with various primary antibodies or rabbit or mouse isotype-specific IgGs (Sigma) as controls. The antibody-captured complexes were recovered with fresh protein A-agarose (for rabbit polyclonal antibodies) or protein A/G-agarose (for mouse monoclonal antibodies) beads (20 μl of original bead slurry/sample) by incubation with lysate/antibody mixture at 4° C. for 2 h. The beads were then washed three times with lysis buffer. Prior to electrophoresis on SDS-polyacrylamide gels, protein samples were boiled in Laemmli sample buffer for 5 min. […]

T1 sequence (Q02294 whole entry): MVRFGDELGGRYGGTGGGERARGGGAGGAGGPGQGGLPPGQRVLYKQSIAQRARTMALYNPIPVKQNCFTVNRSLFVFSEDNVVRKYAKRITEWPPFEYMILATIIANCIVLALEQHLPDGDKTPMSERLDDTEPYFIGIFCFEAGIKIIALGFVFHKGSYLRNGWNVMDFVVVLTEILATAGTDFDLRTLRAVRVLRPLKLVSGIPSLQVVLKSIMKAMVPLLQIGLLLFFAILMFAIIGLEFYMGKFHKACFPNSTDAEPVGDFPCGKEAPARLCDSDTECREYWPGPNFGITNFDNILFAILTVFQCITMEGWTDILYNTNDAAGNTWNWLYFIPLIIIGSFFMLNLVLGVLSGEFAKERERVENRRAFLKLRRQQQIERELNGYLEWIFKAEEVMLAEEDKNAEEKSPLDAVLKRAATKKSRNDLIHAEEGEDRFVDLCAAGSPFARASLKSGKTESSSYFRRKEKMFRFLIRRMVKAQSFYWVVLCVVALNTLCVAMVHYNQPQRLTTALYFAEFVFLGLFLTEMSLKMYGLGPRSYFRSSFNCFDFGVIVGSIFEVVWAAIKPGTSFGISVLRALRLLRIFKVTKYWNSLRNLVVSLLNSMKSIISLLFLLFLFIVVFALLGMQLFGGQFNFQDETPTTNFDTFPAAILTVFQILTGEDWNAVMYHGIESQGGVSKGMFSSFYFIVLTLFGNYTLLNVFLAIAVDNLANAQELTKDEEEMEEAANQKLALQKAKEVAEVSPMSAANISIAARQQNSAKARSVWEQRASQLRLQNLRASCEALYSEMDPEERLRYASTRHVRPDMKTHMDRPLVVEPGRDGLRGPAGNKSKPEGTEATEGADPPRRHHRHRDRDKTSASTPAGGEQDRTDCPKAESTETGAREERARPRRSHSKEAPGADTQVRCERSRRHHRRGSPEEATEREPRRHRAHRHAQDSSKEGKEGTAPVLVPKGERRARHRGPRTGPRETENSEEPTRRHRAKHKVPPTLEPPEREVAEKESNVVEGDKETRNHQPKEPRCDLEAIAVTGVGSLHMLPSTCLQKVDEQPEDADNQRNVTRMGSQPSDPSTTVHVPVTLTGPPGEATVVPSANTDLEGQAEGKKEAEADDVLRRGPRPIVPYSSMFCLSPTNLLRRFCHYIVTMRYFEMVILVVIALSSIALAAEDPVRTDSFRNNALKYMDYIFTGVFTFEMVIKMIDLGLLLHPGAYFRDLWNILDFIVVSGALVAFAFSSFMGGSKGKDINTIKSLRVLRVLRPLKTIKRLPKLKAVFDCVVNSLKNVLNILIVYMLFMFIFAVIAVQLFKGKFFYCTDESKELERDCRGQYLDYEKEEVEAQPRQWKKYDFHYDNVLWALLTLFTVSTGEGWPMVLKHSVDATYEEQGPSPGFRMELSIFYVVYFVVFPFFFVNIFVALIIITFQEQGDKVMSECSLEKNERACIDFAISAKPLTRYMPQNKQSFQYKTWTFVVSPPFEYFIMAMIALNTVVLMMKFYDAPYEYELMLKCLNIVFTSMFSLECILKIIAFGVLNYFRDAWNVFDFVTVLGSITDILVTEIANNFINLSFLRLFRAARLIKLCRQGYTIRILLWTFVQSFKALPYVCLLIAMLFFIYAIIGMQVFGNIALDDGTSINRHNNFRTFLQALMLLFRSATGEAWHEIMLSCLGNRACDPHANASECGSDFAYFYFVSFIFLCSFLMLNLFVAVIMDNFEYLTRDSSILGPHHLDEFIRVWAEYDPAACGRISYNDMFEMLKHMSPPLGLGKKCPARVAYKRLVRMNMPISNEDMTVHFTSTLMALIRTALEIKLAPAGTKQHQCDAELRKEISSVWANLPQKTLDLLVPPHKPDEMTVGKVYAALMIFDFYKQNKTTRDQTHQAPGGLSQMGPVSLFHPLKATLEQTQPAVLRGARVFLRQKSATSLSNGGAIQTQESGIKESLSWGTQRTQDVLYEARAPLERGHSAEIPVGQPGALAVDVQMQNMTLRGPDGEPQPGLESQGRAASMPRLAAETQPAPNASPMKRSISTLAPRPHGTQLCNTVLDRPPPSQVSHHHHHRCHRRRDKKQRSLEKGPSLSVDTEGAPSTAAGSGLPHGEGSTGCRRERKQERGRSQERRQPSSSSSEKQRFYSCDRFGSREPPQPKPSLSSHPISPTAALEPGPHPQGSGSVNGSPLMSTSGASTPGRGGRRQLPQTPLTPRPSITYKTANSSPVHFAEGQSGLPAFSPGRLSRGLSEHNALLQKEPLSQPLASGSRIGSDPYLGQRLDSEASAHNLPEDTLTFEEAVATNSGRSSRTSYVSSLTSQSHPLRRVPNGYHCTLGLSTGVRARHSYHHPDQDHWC
T1 sequence (P54287 whole entry partner): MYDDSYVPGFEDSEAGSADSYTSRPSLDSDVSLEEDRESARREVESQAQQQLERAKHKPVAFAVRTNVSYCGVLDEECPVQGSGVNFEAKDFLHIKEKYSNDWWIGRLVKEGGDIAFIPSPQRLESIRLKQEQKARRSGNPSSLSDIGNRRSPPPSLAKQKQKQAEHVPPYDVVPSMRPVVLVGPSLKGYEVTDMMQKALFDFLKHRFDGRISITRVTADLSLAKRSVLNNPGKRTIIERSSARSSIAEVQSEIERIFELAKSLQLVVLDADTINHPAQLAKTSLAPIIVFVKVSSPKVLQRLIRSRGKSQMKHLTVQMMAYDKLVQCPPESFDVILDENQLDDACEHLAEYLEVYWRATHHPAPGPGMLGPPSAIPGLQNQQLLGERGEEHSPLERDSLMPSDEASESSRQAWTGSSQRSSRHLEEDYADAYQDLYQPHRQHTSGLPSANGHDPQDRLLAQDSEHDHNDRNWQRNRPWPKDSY

Compound | coordination or spatial memory (Morris water maze) (spatial memory) | formalin-induced flinching, phase 1 and phase 2 [1] | CRMP-2-CaV2.2 interaction (immunoprecipitation) [2]
CC(C)C[C@H](NC(=O)CNC(=O)[C@H](CCCNC(=N)N)NC(=O)[C@@H]1CCCN1C(=O)[C@@H](NC(=O)CNC(=O)[C@H](CCCNC(=N)N)NC(=O)[C@H](CC(C)C)NC(=O)[C@H](CCC(=O)O)NC(=O)[C@H](C)NC(=O)[C@H](CC(C)C)NC(=O)[C@H](CCCNC(=N)N)NC(=O)[C@H](CO)NC(=O)[C@H](CCCNC(=N)N)NC(=O)[C@H](C)NC(=O)[C@H](CCCNC(=N)N)NC(=O)[C@H](CCCNC(=N)N)NC(=O)[C@H](CCCNC(=N)N)NC(=O)[C@H](CCC(N)=O)NC(=O)[C@H](CCCNC(=N)N)NC(=O)[C@H](CCCNC(=N)N)NC(=O)[C@H](CCCCN)NC(=O)[C@H](CCCCN)NC(=O)[C@H](CCCNC(=N)N)NC(=O)CNC(=O)[C@@H](N)Cc1ccc(O)cc1)C(C)C)C(=O)O [TAT-CBD3] (H-YGRKKRRQRRRARSRLAELRGVPRGL-OH; N-terminus and C-terminus assumed) | did not affect coordination or spatial memory |  | 
ARSRLAELRGVPRGL (CBD3) |  | displayed blunted nociceptive behaviors in both phases | inhibited; also recorded: inhibits the binding between CRMP-2 and CaV2.2
